Source: patent publication US11413264B2, “Carbamoyl phenylalaninol analogs and uses thereof” (Jazz Pharmaceuticals Ireland Limited, priority 2017, dated 2022)
Counter-ions that a name gives are not always drawn. Like-named read-outs stand apart in the source and are kept apart here.

What was measured:
Conditions in all cases: compound at 10 μM
[1] = biological target: T1, norepinephrine transporter (NET) (Homo sapiens, UniProt P23975); experiment: Competitive radioligand binding assay, norepinephrine transporter (antagonist radioligand)
T1 construct: expressed in transfected cells; host or cells: CHO cells (membrane fractions)
T1 sequence (P23975 whole entry): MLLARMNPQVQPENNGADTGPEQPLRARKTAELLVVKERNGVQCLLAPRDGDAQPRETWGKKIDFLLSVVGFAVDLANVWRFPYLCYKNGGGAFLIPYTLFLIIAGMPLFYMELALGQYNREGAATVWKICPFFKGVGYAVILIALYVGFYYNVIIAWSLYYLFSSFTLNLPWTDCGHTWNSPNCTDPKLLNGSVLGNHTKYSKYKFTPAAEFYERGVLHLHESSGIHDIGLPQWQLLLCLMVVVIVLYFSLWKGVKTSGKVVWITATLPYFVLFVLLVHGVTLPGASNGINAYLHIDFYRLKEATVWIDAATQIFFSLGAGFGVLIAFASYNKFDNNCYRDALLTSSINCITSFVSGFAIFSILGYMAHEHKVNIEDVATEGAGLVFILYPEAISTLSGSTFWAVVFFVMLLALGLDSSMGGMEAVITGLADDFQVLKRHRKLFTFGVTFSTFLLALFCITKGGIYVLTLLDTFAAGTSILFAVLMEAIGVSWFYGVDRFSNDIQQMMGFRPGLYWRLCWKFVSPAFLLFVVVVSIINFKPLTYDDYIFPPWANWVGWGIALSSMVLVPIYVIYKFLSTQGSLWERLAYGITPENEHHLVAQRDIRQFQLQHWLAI
Procedure: (§1) Compounds of the invention were tested for pharmacological activity in comparison to APC. Eight binding assays were carried out to provide a binding profile for each compound, including binding to dopamine transporter (DAT), norepinephrine transporter (NET), serotonin (5-HT) transporter (SERT), alpha2A adrenergic receptor (Alpha2A), alpha2C adrenergic receptor (Alpha2C), D2S dopamine receptor (D2S), D2L dopamine receptor (D2L), and vesicular monoamine transporter (VMAT2). Competitive binding assays using a radiolabeled ligand were carried out with each compound at 10 μM. The radioligand for each target was as follows: DAT—BTCP, NET—nisoxetine, SERT—imipramine, Alpha2A—yohimbine, Alpha2C—yohimbine, D2S—7-OH-DPAT, D2L—methylspiperone, VMAT2—tetrabenazine. The source of the receptors and transporters were prepared cell membrane fractions.

[2] = biological target: T2, dopamine transporter (DAT) (Homo sapiens, UniProt Q01959); experiment: Competitive radioligand binding assay, dopamine transporter (antagonist radioligand)
T2 construct: expressed in transfected cells; host or cells: CHO cells (membrane fractions)
T2 sequence (Q01959 whole entry): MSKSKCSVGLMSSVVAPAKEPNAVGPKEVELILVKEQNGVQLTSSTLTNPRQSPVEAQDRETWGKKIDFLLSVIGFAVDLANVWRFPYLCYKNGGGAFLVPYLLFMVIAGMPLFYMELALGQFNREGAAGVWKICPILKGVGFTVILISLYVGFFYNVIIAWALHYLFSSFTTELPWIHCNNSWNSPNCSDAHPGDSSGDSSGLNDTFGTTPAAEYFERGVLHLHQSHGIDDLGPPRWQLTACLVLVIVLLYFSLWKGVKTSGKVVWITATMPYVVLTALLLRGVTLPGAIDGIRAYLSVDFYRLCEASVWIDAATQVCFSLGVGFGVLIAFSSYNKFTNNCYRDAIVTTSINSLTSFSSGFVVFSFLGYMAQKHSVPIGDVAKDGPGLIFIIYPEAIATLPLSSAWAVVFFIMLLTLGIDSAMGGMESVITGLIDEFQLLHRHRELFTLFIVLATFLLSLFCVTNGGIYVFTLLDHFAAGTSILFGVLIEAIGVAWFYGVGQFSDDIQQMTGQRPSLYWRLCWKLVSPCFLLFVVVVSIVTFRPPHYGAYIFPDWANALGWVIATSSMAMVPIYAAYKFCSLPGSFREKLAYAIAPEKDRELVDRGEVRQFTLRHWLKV
Procedure: as §1

[3] = biological target: T3, D2L dopamine receptor (D2L) (Homo sapiens, UniProt P14416); experiment: Competitive radioligand binding assay, D2L (antagonist radioligand)
T3 construct: expressed in transfected cells; host or cells: HEK-293 cells (membrane fractions)
T3 sequence (P14416 whole entry): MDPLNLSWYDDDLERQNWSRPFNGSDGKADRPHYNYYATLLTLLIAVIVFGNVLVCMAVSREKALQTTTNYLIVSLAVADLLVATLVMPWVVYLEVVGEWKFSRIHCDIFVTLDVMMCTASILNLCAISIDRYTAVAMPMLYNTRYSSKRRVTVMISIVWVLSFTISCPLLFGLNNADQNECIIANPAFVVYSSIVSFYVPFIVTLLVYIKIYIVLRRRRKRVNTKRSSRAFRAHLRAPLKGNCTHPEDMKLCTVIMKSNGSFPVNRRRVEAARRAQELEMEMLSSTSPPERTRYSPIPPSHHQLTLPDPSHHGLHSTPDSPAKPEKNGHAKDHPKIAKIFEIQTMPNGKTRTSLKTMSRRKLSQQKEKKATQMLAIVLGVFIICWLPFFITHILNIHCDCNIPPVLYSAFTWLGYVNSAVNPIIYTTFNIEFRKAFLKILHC
Procedure: as §1

[4] = biological target: T4, alpha2A adrenergic receptor (Alpha2A) (Homo sapiens, UniProt P08913); experiment: Competitive radioligand binding assay, α2A (antagonist radioligand)
T4 construct: expressed in transfected cells; host or cells: CHO cells (membrane fractions)
T4 sequence (P08913 1-465): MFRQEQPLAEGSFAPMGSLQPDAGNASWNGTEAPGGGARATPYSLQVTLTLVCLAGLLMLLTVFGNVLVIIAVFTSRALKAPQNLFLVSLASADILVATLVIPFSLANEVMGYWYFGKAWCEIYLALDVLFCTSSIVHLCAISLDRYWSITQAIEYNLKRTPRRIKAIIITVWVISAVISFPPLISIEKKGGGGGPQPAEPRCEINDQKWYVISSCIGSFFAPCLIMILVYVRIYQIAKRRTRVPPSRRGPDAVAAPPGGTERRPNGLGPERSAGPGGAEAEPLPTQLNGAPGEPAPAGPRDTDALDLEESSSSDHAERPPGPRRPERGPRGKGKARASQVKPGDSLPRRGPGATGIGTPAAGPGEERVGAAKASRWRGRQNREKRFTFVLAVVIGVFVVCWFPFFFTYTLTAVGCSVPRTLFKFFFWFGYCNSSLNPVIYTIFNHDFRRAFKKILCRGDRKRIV
Procedure: as §1

[5] = biological target: T5, vesicular monoamine transporter (VMAT2) (Rattus norvegicus, UniProt Q01827); experiment: Competitive radioligand binding assay, VMAT2 transporter (antagonist radioligand)
T5 construct: Rat brain; from tissue; host or cells: rat brain minus cerebellum, membrane fraction
T5 sequence (Q01827 whole entry): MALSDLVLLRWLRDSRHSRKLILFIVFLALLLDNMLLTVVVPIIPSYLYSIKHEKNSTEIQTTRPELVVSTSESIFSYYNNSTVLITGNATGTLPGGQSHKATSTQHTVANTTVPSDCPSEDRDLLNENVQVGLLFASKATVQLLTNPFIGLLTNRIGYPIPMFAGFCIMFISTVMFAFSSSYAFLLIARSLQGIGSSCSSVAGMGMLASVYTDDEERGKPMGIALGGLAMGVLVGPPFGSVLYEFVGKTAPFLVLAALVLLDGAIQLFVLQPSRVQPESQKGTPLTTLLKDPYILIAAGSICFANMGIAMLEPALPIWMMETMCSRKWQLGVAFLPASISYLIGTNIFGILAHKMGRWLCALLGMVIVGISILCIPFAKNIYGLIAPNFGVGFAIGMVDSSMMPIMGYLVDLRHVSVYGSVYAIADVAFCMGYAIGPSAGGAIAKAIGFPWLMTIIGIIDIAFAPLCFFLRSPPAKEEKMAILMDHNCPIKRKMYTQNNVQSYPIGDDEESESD
Procedure: as §1

[6] = biological target: T6, serotonin (5-HT) transporter (SERT) (Homo sapiens, UniProt P31645); experiment: Competitive radioligand binding assay, 5-HT transporter (antagonist radioligand)
T6 construct: expressed in transfected cells; host or cells: CHO cells (membrane fractions)
T6 sequence (P31645 whole entry): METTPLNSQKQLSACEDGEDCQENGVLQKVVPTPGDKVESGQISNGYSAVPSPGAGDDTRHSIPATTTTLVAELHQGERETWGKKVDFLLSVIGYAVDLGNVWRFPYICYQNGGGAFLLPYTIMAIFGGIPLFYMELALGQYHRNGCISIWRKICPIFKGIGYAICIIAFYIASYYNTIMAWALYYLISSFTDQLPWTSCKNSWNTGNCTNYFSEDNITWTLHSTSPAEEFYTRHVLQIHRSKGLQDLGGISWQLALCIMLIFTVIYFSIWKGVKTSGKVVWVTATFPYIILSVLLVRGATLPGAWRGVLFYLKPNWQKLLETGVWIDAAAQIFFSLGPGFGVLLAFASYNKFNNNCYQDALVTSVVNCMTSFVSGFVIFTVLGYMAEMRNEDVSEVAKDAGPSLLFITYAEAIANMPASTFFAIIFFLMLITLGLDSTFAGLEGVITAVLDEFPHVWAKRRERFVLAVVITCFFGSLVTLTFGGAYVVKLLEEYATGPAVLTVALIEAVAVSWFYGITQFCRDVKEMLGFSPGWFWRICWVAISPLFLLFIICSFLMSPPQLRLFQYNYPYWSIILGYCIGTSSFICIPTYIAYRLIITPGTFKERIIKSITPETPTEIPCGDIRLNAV
Procedure: as §1

[7] = biological target: T7, alpha2C adrenergic receptor (Alpha2C) (Homo sapiens, UniProt P18825); experiment: Competitive radioligand binding assay, α2C (antagonist radioligand)
T7 construct: expressed in transfected cells; host or cells: CHO cells (membrane fractions)
T7 sequence (P18825 1-462): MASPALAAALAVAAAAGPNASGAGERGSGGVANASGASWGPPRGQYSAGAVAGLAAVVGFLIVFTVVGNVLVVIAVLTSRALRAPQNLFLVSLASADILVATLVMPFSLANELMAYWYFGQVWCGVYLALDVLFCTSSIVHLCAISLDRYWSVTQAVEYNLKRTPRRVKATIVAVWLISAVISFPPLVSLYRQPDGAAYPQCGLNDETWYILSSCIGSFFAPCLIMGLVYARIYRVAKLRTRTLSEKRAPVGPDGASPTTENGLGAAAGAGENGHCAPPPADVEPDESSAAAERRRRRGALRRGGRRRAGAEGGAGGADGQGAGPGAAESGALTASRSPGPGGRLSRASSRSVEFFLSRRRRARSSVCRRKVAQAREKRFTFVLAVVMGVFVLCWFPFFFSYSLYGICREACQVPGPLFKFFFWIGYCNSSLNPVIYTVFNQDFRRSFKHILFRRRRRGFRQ
Procedure: as §1

[8] = biological target: T8, D2S dopamine receptor (D2S) (Homo sapiens, UniProt P14416); experiment: Competitive radioligand binding assay, D2S (agonist radioligand)
T8 construct: expressed in transfected cells; host or cells: HEK-293 cells (membrane fractions)
T8 sequence (P14416 1-414 isoform P14416-2): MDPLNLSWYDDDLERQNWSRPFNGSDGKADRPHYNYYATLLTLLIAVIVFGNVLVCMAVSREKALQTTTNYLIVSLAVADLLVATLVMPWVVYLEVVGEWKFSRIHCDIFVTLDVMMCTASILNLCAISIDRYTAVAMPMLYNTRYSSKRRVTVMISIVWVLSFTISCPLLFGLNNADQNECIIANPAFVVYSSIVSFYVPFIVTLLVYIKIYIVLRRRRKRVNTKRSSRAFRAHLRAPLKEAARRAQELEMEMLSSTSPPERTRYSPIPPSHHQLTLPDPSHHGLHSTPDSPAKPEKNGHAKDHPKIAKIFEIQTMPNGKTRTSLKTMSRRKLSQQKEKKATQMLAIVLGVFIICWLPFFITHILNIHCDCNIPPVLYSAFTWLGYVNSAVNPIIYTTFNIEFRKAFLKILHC
Procedure: as §1

[9] = 1st individual result, read-out: % inhibition of control specific binding, 1st
[10] = 2nd individual result, read-out: % inhibition of control specific binding, 2nd
[11] = mean, read-out: % inhibition of control specific binding, Mean

Structure (SMILES): NC(=O)SC[C@H](N)Cc1ccccc1 [Compound 10, (R)—S-(2-Amino-3-phenylpropyl) carbamothioate hydrochloride]
- inhibition at 10 µM ([1]; Norepinephrine transporter, 1st individual result, read-out: % inhibition of control specific binding, 1st): 91.7%
- inhibition at 10 µM ([1]; Norepinephrine transporter, 2nd individual result, read-out: % inhibition of control specific binding, 2nd): 91.7%
- inhibition at 10 µM ([1]; Norepinephrine transporter, mean, read-out: % inhibition of control specific binding, Mean): 91.7%
- inhibition at 10 µM ([1]; [3H]nisoxetine 1 nM, human recombinant (CHO cells), read-out: % Inhibition of Binding at Each Transporter or Receptor Target, NET): 91.7%
- binding to the norepinephrine transporter (in words) ([1]; summary): substantial binding
- inhibition at 10 µM ([2]; Dopamine transporter, 1st individual result, read-out: % inhibition of control specific binding, 1st): 85.3%
- inhibition at 10 µM ([2]; Dopamine transporter, 2nd individual result, read-out: % inhibition of control specific binding, 2nd): 87.3%
- inhibition at 10 µM ([2]; Dopamine transporter, mean, read-out: % inhibition of control specific binding, Mean): 86.3%
- inhibition at 10 µM ([2]; [3H]BTCP 4 nM, human recombinant (CHO cells), read-out: % Inhibition of Binding at Each Transporter or Receptor Target, DAT): 86.3%
- binding to the dopamine transporter (in words) ([2]; summary): substantial
- inhibition at 10 µM ([3]; D2L, 1st individual result, read-out: % inhibition of control specific binding, 1st): 33.7%
- inhibition at 10 µM ([3]; D2L, 2nd individual result, read-out: % inhibition of control specific binding, 2nd): 35.6%
- inhibition at 10 µM ([3]; D2L, mean, read-out: % inhibition of control specific binding, Mean): 34.7%
- inhibition at 10 µM ([3]; [3H]methyl-spiperone 0.3 nM, human recombinant (HEK-293 cells), read-out: % Inhibition of Binding at Each Transporter or Receptor Target, D2L): 34.7%
- inhibition at 10 µM [4, 9]: 64.4%
- inhibition at 10 µM [4, 10]: 46.1%
- inhibition at 10 µM [4, 11]: 55.3%
- inhibition at 10 µM ([5]; VMAT2 transporter, single value, read-out: % inhibition of control specific binding, 1st): 5%
- inhibition at 10 µM ([5]; [3H]dihydrotetrabenazine 10 nM, rat brain (minus cerebellum), read-out: % Inhibition of Binding at Each Transporter or Receptor Target, VMAT2): 5%
- inhibition at 10 µM ([6]; 5-HT transporter, 1st individual result, read-out: % inhibition of control specific binding, 1st): 21.7%
- inhibition at 10 µM ([6]; 5-HT transporter, 2nd individual result, read-out: % inhibition of control specific binding, 2nd): 22%
- inhibition at 10 µM ([6]; 5-HT transporter, mean, read-out: % inhibition of control specific binding, Mean): 21.9%
- inhibition at 10 µM ([6]; [3H]imipramine 2 nM, human recombinant (CHO cells), read-out: % Inhibition of Binding at Each Transporter or Receptor Target, SERT): 21.9%
- inhibition at 10 µM [7, 9]: 89.3%
- inhibition at 10 µM [7, 10]: 92.4%
- inhibition at 10 µM [7, 11]: 90.9%
- inhibition at 10 µM ([8]; D2S, 1st individual result, read-out: % inhibition of control specific binding, 1st): 89.5%
- inhibition at 10 µM ([8]; D2S, 2nd individual result, read-out: % inhibition of control specific binding, 2nd): 90.5%
- inhibition at 10 µM ([8]; D2S, mean, read-out: % inhibition of control specific binding, Mean): 90%
- inhibition at 10 µM ([8]; [3H]7-OH-DPAT 1 nM, human recombinant (HEK-293 cells), read-out: % Inhibition of Binding at Each Transporter or Receptor Target, D2S): 90%
